Earlier results as cited in patent US20160015711A1, “CALCIUM PTERIN-6-CARBOXYLATE (CaPTERIN-6-COOH) AS A NOVEL IMMUNO-THERAPEUTIC” (SanRx Pharmaceuticals, Inc., priority 2014, published 2016).

Conditions: pH <4

Q: For `Nc1nc([O-])c2nccnc2n1.Nc1nc([O-])c2nccnc2n1.[Ca+2]` [DCP, dipterinyl calcium pentahydrate], which “stability under acidic conditions” value is on record?
A: breaks down to form CaPterin
